Patent US12258337B2, “Bicyclic CX3CR1 receptor agonists” (Board of Regents, The University of Texas System, priority 2019, dated 2025)

What was measured:
hCX3CR1 = target: T1, hCX3CR1 (Homo sapiens, UniProt P49238); experiment: GTPγ[35S] Scintillation Proximity Assay, CHO-K1 cell membranes; type: biochemical; set-up: expressed in transfected cells; host or cells: CHO-K1 cell membranes
T1 sequence (P49238 1-355): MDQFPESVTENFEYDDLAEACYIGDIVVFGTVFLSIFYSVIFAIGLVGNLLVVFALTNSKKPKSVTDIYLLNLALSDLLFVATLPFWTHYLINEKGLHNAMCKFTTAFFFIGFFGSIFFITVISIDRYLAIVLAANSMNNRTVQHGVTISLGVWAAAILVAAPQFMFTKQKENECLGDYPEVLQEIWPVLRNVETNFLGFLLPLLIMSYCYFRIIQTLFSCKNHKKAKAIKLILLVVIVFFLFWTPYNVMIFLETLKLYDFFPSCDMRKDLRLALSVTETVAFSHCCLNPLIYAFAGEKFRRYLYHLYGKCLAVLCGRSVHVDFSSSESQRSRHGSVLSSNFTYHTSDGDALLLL
Procedure: (§1) GTPγ[^35S] Scintillation Proximity Assay
(§2) Compounds were tested for agonist activity at the mouse and human CX3CR1 receptor using cell membranes from CHO-K1 cells expressing recombinant mouse or human CX3CR1. For agonist testing, membranes are mixed with GDP. In parallel, GTPγ[^35S] is mixed with the beads just before starting the reaction. The following reagents are successively added in the wells of an Optiplate (Perkin Elmer): 50 μL of test or reference ligand, 10 μL of assay buffer, 20 μL of the membranes:GDP mix, and 20 μL of the GTPγ[^35S]:beads mix. The plates are covered with a top seal, mixed on an orbital shaker for 2 min, and then incubated for 1 hour at room temperature. Then the plates are centrifuged for 10 min at 2000 rpm, incubated at room temperature 1 hour and counted for 1 min/well with a PerkinElmer TopCount reader.

mouse CX3CR1 receptor = target: T2, mouse CX3CR1 receptor (Mus musculus, UniProt Q9Z0D9); experiment: as above; type: biochemical
T2 construct: expressed in transfected cells; host or cells: CHO-K1 cell membranes
T2 sequence (Q9Z0D9 1-354): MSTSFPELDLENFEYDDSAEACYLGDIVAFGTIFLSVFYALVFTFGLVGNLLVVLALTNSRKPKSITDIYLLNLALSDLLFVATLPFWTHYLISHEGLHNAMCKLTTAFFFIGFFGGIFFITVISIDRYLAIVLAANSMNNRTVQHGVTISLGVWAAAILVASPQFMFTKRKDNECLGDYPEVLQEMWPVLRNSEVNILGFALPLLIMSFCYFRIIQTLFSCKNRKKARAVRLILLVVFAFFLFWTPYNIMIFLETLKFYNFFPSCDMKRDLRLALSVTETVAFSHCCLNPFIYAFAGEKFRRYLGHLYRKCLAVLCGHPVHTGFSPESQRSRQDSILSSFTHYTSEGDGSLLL
Procedure: as §1, §2

[1] = tested on: THP-1 cell adhesion to HepG2 cells; experiment: CX3CR1-dependent THP-1 cell adhesion to HepG2 cells; type: cell-based; conditions: THP-1 pre-treated with compound 30 min, FIG. 1
Procedure: CX3CR1 Agonists Prevent CX3CR1-Dependent THP-1 Cell Adhesion to HepG2 Cells
This assay measures the adhesion of THP-1 monocytes, which constitutively express CX3CR1, to HepG2 cells, a fractalkine-expressing cell line. Briefly, HepG2 cells were seeded at 80,000 cells per well in 96-well plates and allowed to form a monolayer overnight. The following day, THP-1 cells (at 2×10^6 cells/mL) were fluorescently labeled with Calcein-AM (5 μM) and pre-treated with compound at the doses indicated for 30 min. Labeled THP-1 cells were subsequently seeded (50,000/well) into the HepG2-containing plates and incubated for 30 min before imaging for Calcein-AM signal on the INCell Analyzer Imaging System. After four washes, the plates were imaged once again to calculate THP-1 cell adhesion, as measured by the percentage of cells remaining on the plates. […] These agonists behave as functional antagonists in the cell adhesion assay by blocking the interaction between CX3CR1 and fractalkine.

Row | EC50 (hCX3CR1) [µM] | Emax (hCX3CR1) [%] | EC50 (mouse CX3CR1 receptor) [µM] | Emax (mouse CX3CR1 receptor) [%] | Compound | THP-1 cell adhesion to HepG2 cells [1]
1 | 4.1 | 61 | > 50 | 26 | CN(C)CC(C)(C)CNC(=O)c1cc2c(s1)CCCCCC2 [Example 70, N-[3-(dimethylamino)-2,2-dimethylpropyl]-4,5,6,7,8,9-hexahydrocycloocta[b]thiophene-2-carboxamide] | –
2 | 1.3 | 60 | 41.4 | 44 | CC(C)(CNC(=O)c1cc2c(s1)CCCCCC2)CN1CCCC1 [Example 1, N-(2,2-dimethyl-3-pyrrolidin-1-ylpropyl)-4,5,6,7,8,9-hexahydrocycloocta[b]thiophene-2-carboxamide] | prevented THP-1 adhesion to HepG2 cells in a dose-dependent manner
3 | 0.8 | 80 | 8.5 | 55 | CN(C)CC1(CNC(=O)c2cc3c(s2)CCCCCC3)CCCC1 [Example 2, N-[[1-[(dimethylamino)methyl]cyclopentyl]methyl]-4,5,6,7,8,9-hexahydrocycloocta[b]thiophene-2-carboxamide] | prevented THP-1 adhesion to HepG2 cells in a dose-dependent manner
